Patent US9695155B2, “Herbicidal substituted pyrimidinyloxy benzene compounds” (E. I. DU PONT DE NEMOURS AND COMPANY, priority 2013, dated 2017)

Key:
velvetleaf = experiment: Test C postemergence; format: in vivo, Abutilon theophrasti; details: for Plant response rating, Velvetleaf / Velvetleaf plant response rating: scale 0 to 100 (0 no effect, 100 complete control)
How it was run: (§1)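 Sown in loam/sand → sprayed pre-emergence; or grown to 1–4 leaves in peat mix → sprayed post-emergence. Same solvent/surfactant formulation both ways. Greenhouse 13–15 d. Score 0–100 visual.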

giant foxtail = experiment: Test A postemergence; format: in vivo, Setaria faberii
How it was run: (§2)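 Visual injury scored 0–100 (100 = complete control) against untreated controls about 10 days after treatment in a greenhouse. Test chemicals, formulated with surfactant in non-phytotoxic solvent, were sprayed on soil preemergence or on 2-10 cm, one- to two-leaf plants postemergence.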

waterhemp = experiment: Test C postemergence; format: in vivo, Amaranthus rudis; details: for Plant response rating, Waterhemp / Waterhemp plant response rating: scale 0 to 100 (0 no effect, 100 complete control)
How it was run: as §1

corn = experiment: Test C postemergence; format: in vivo, Zea mays; details: for Plant response rating, Corn / Corn plant response rating: scale 0 to 100 (0 no effect, 100 complete control)
How it was run: as §1

pigweed [1] = experiment: Test A postemergence; format: in vivo, Amaranthus retroflexus
How it was run: as §2

pigweed [2] = experiment: Test A preemergence; format: in vivo, Amaranthus retroflexus
How it was run: as §2

oilseed rape = experiment: Test C postemergence; format: in vivo, Brassica napus; details: for Plant response rating, Oilseed Rape / Oilseed Rape plant response rating: scale 0 to 100 (0 no effect, 100 complete control)
How it was run: as §1

large (Lg) crabgrass [3] = experiment: Test C postemergence; format: in vivo, Digitaria sanguinalis; details: for Plant response rating, Crabgrass, Large / Crabgrass, Large plant response rating: scale 0 to 100 (0 no effect, 100 complete control)
How it was run: as §1

johnsongrass = experiment: Test C postemergence; format: in vivo, Sorghum halepense; details: for Plant response rating, Johnsongrass / Johnsongrass plant response rating: scale 0 to 100 (0 no effect, 100 complete control)
How it was run: as §1

large (Lg) crabgrass [4] = experiment: Test A postemergence; format: in vivo, Digitaria sanguinalis
How it was run: as §2

large (Lg) crabgrass [5] = experiment: Test A preemergence; format: in vivo, Digitaria sanguinalis
How it was run: as §2

[6] = Postemergence, 31 g ai/ha, 13 to 15 days
[7] = 125 g ai/ha, 0 to 100 scale where 0 is no effect and 100 is complete control
[8] = 500 g ai/ha, 0 to 100 scale, 0 no effect, 100 complete control
[9] = 500 g ai/ha, 0 to 100 scale, 0 no effect, 100 complete control, approx. 10 days
[10] = 16 g ai/ha, postemergence, 0 is no effect, 100 is complete control
[11] = 31 g ai/ha, postemergence, visual rating, 13 to 15 days
[12] = 125 g ai/ha, postemergence, visual rating
[13] = 1000 g ai/ha, 0 to 100 scale, 0 no effect, 100 complete control
[14] = Postemergence, 62 g ai/ha, 13 to 15 days
[15] = 125 g ai/ha, 0 to 100 scale, 0 no effect, 100 complete control
[16] = 500 g ai/ha, 0 to 100 scale where 0 is no effect and 100 is complete control

N#Cc1cccc(Oc2ncc(F)cn2)c1-n1cc(Br)cn1 [Compound 62]
Plant response rating (0 to 100), Velvetleaf (velvetleaf; 125 g ai/ha, postemergence): 75 | Plant response rating (0 to 100), Velvetleaf (velvetleaf; 250 g ai/ha, postemergence): 85 | Plant response rating, Velvetleaf (velvetleaf; [6]): 20 | Plant response rating, Velvetleaf (velvetleaf; Postemergence, 62 g ai/ha): 20 | Plant response rating, Foxtail, Giant (giant foxtail; [7]): 90 | Plant response rating, Foxtail, Giant (giant foxtail; [8]): 100 | Plant response rating (0 to 100), Waterhemp (waterhemp; 125 g ai/ha, postemergence): 75 | Plant response rating (0 to 100), Waterhemp (waterhemp; 250 g ai/ha, postemergence): 75 | Plant response rating, Waterhemp (waterhemp; [6]): 40 | Plant response rating, Waterhemp (waterhemp; Postemergence, 62 g ai/ha): 60 | Plant response rating (0 to 100), Corn (corn; 125 g ai/ha, postemergence): 15 | Plant response rating (0 to 100), Corn (corn; 250 g ai/ha, postemergence): 20 | Plant response rating, Corn (corn; [6]): 5 | Plant response rating, Corn (corn; Postemergence, 62 g ai/ha): 15 | Plant response rating, Pigweed (pigweed [1]; [7]): 100 | Plant response rating, Pigweed (pigweed [1]; [8]): 100 | Plant response rating, Pigweed (pigweed [2]; [7]): 100 | Pigweed plant response rating (pigweed [2]; [9]): 100 | Plant response rating (0 to 100), Oilseed Rape (oilseed rape; 125 g ai/ha, postemergence): 60 | Plant response rating (0 to 100), Oilseed Rape (oilseed rape; 250 g ai/ha, postemergence): 75 | Plant response rating, Oilseed Rape (oilseed rape; [6]): 20 | Plant response rating, Oilseed Rape (oilseed rape; Postemergence, 62 g ai/ha): 20 | Plant response rating (0 to 100), Crabgrass, Large (large (Lg) crabgrass [3]; 125 g ai/ha, postemergence): 10 | Plant response rating (0 to 100), Crabgrass, Large (large (Lg) crabgrass [3]; 250 g ai/ha, postemergence): 35 | Plant response rating, Crabgrass, Large (large (Lg) crabgrass [3]; [6]): 5 | Plant response rating, Crabgrass, Large (large (Lg) crabgrass [3]; Postemergence, 62 g ai/ha): 5 | Plant response rating (0 to 100), Johnsongrass (johnsongrass; 125 g ai/ha, postemergence): 10 | Plant response rating (0 to 100), Johnsongrass (johnsongrass; 250 g ai/ha, postemergence): 15 | Plant response rating, Johnsongrass (johnsongrass; [6]): 5 | Plant response rating, Johnsongrass (johnsongrass; Postemergence, 62 g ai/ha): 5 | Plant response rating, Crabgrass, Large (large (Lg) crabgrass [4]; [7]): 90 | Plant response rating, Crabgrass, Large (large (Lg) crabgrass [4]; [8]): 100 | Plant response rating, Crabgrass, Large (large (Lg) crabgrass [5]; [7]): 90 | Crabgrass, Large plant response rating (large (Lg) crabgrass [5]; [9]): 100

Fc1cccc(Oc2ncc(Cl)cn2)c1-n1cc(C2CC2)nn1 [Compound 155]
Plant response rating (0 to 100), Velvetleaf (velvetleaf; [10]): 45 | Velvetleaf plant response rating (velvetleaf; [11]): 75 | Plant response rating, Velvetleaf (velvetleaf; [12]): 85 | Plant response rating, Velvetleaf (velvetleaf; Postemergence, 62 g ai/ha): 70 | Plant response rating, Foxtail, Giant (giant foxtail; [13]): 100 | Plant response rating (0 to 100), Waterhemp (waterhemp; [10]): 45 | Waterhemp plant response rating (waterhemp; [11]): 65 | Plant response rating, Waterhemp (waterhemp; [12]): 98 | Plant response rating, Waterhemp (waterhemp; Postemergence, 62 g ai/ha): 80 | Plant response rating (0 to 100), Corn (corn; [10]): 5 | Corn plant response rating (corn; [11]): 5 | Plant response rating, Corn (corn; [12]): 10 | Plant response rating, Corn (corn; Postemergence, 62 g ai/ha): 5 | Plant response rating, Pigweed (pigweed [1]; [13]): 100 | Pigweed plant response rating (pigweed [2]; 1000 g ai/ha, 0 to 100 scale, 0 no effect, 100 complete control, approx. 10 days): 100 | Plant response rating (0 to 100), Oilseed Rape (oilseed rape; [10]): 60 | Oilseed Rape plant response rating (oilseed rape; [11]): 50 | Plant response rating, Oilseed Rape (oilseed rape; [12]): 80 | Plant response rating, Oilseed Rape (oilseed rape; Postemergence, 62 g ai/ha): 50 | Plant response rating (0 to 100), Crabgrass, Large (large (Lg) crabgrass [3]; [10]): 5 | Crabgrass, Large plant response rating (large (Lg) crabgrass [3]; [11]): 5 | Plant response rating, Crabgrass, Large (large (Lg) crabgrass [3]; [12]): 15 | Plant response rating, Crabgrass, Large (large (Lg) crabgrass [3]; Postemergence, 62 g ai/ha): 5 | Plant response rating (0 to 100), Johnsongrass (johnsongrass; [10]): 0 | Johnsongrass plant response rating (johnsongrass; [11]): 0 | Plant response rating, Johnsongrass (johnsongrass; [12]): 5 | Plant response rating, Johnsongrass (johnsongrass; Postemergence, 62 g ai/ha): 5

N#Cc1cccc(Oc2ncc(Cl)cn2)c1-n1cc(-n2ccc(C(F)(F)F)n2)cn1 [Compound 284]
Velvetleaf plant response rating (velvetleaf; [11]): 15 | Plant response rating, Velvetleaf (velvetleaf; [12]): 30 | Plant response rating (0 to 100), Velvetleaf (velvetleaf; 250 g ai/ha, postemergence): 70 | Plant response rating, Velvetleaf (velvetleaf; [14]): 15 | Plant response rating, Foxtail, Giant (giant foxtail; [15]): 90 | Plant response rating, Foxtail, Giant (giant foxtail; [16]): 90 | Waterhemp plant response rating (waterhemp; [11]): 85 | Plant response rating, Waterhemp (waterhemp; [12]): 98 | Plant response rating (0 to 100), Waterhemp (waterhemp; 250 g ai/ha, postemergence): 100 | Plant response rating, Waterhemp (waterhemp; [14]): 85 | Corn plant response rating (corn; [11]): 5 | Plant response rating, Corn (corn; [12]): 20 | Plant response rating (0 to 100), Corn (corn; 250 g ai/ha, postemergence): 20 | Plant response rating, Corn (corn; [14]): 10 | Plant response rating, Pigweed (pigweed [1]; [15]): 100 | Plant response rating, Pigweed (pigweed [1]; [16]): 100 | Pigweed plant response rating (0 to 100 scale) (pigweed [2]; 125 g ai/ha): 100 | Pigweed plant response rating (pigweed [2]; [16]): 100 | Oilseed Rape plant response rating (oilseed rape; [11]): 70 | Plant response rating, Oilseed Rape (oilseed rape; [12]): 80 | Plant response rating (0 to 100), Oilseed Rape (oilseed rape; 250 g ai/ha, postemergence): 80 | Plant response rating, Oilseed Rape (oilseed rape; [14]): 70 | Crabgrass, Large plant response rating (large (Lg) crabgrass [3]; [11]): 5 | Plant response rating, Crabgrass, Large (large (Lg) crabgrass [3]; [12]): 10 | Plant response rating (0 to 100), Crabgrass, Large (large (Lg) crabgrass [3]; 250 g ai/ha, postemergence): 10 | Plant response rating, Crabgrass, Large (large (Lg) crabgrass [3]; [14]): 5 | Johnsongrass plant response rating (johnsongrass; [11]): 5 | Plant response rating, Johnsongrass (johnsongrass; [12]): 20 | Plant response rating (0 to 100), Johnsongrass (johnsongrass; 250 g ai/ha, postemergence): 20 | Plant response rating, Johnsongrass (johnsongrass; [14]): 5
